In PubChem BioAssay (NCI):
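The compound was tested at five concentrations on cells cultured in 96-well plates, with a 48-hour exposure period. TGI: total growth inhibition.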

Legend:
Assay in all cases: NCI tumour cell line growth inhibition, 48 h
[1] = tested on: MDA-MB-435
[2] = tested on: IGROV1 ovarian
[3] = tested on: NCI-H23 lung
[4] = tested on: HCT-116 colon
[5] = tested on: OVCAR-3 ovarian
[6] = tested on: MDA-N
[7] = tested on: LOX IMVI melanoma
[8] = tested on: A498 renal
[9] = tested on: SK-MEL-28 melanoma
[10] = tested on: UACC-62 melanoma
[11] = tested on: SW-620 colon
[12] = tested on: 786-0 renal
[13] = tested on: BT-549 breast
[14] = tested on: HOP-62 NSCLC
[15] = tested on: MDA-MB-231 breast
[16] = tested on: MCF7 breast
[17] = tested on: OVCAR-5 ovarian
[18] = tested on: NCI-H226 lung
[19] = tested on: HCC-2998 colon
[20] = tested on: PC-3 prostate
[21] = tested on: SNB-75 CNS
[22] = tested on: NCI-H522 lung
[23] = tested on: OVCAR-8 ovarian
[24] = tested on: HOP-92 NSCLC
[25] = tested on: UO-31 renal
[26] = tested on: SK-MEL-2 melanoma
[27] = tested on: SF-268 CNS
[28] = tested on: HT29 colon
[29] = tested on: ACHN renal
[30] = tested on: U251 CNS
[31] = tested on: RPMI-8226 leukemia
[32] = tested on: TK-10 renal
[33] = tested on: HL-60(TB) leukemia
[34] = tested on: HCT-15 colon
[35] = tested on: UACC-257 melanoma
[36] = tested on: HS 578T breast
[37] = tested on: DU-145 prostate
[38] = tested on: MALME-3M melanoma
[39] = tested on: SK-OV-3 ovarian
[40] = tested on: CCRF-CEM leukemia
[41] = tested on: OVCAR-4 ovarian
[42] = tested on: K-562 leukemia
[43] = tested on: SN12C renal
[44] = tested on: M14 melanoma
[45] = tested on: NCI/ADR-RES ovarian
[46] = tested on: SF-295 CNS
[47] = tested on: COLO 205 colon
[48] = tested on: KM12 colon
[49] = tested on: MOLT-4 leukemia
[50] = tested on: EKVX NSCLC
[51] = tested on: SK-MEL-5 melanoma
[52] = tested on: A549 NSCLC
[53] = tested on: CAKI-1 renal
[54] = tested on: RXF 393 renal
[55] = tested on: T-47D breast
[56] = tested on: NCI-H460 lung
[57] = tested on: SNB-19 CNS
[58] = tested on: SR leukemia
[59] = tested on: SF-539 CNS

CO/C(N)=C(\C#N)N=Cc1ccco1
TGI [1]: > 100 µM | TGI [2]: > 100 µM | TGI [3]: > 100 µM | TGI [4]: > 100 µM | TGI [5]: > 100 µM | TGI [6]: > 100 µM | TGI [7]: > 100 µM | TGI [8]: > 100 µM | TGI [9]: > 100 µM | TGI [10]: > 100 µM | TGI [11]: > 100 µM | TGI [12]: > 100 µM | TGI [13]: > 100 µM | TGI [14]: > 100 µM | TGI [15]: > 100 µM | TGI [16]: > 100 µM | TGI [17]: > 100 µM | TGI [18]: > 100 µM | TGI [19]: > 100 µM | TGI [20]: > 100 µM | TGI [21]: > 100 µM | TGI [22]: > 100 µM | TGI [23]: > 100 µM | TGI [24]: > 100 µM | TGI [25]: > 100 µM | TGI [26]: > 100 µM | TGI [27]: > 100 µM | TGI [28]: > 100 µM | TGI [29]: > 100 µM | TGI [30]: > 100 µM | TGI [31]: > 100 µM | TGI [32]: > 100 µM | TGI [33]: > 100 µM | TGI [34]: > 100 µM | TGI [35]: > 100 µM | TGI [36]: > 100 µM | TGI [37]: > 100 µM | TGI [38]: > 100 µM | TGI [39]: > 100 µM | TGI [40]: > 100 µM | TGI [41]: > 100 µM | TGI [42]: > 100 µM | TGI [43]: > 100 µM | TGI [44]: > 100 µM | TGI [45]: > 100 µM | TGI [46]: > 100 µM | TGI [47]: > 100 µM | TGI [48]: > 100 µM | TGI [49]: > 100 µM | TGI [50]: > 100 µM | TGI [51]: > 100 µM | TGI [52]: > 100 µM | TGI [53]: > 100 µM | TGI [54]: > 100 µM | TGI [55]: > 100 µM

CCOC(=O)c1c(NC(=O)c2cccs2)sc2c1CCC2
TGI [2]: > 100 µM | TGI [3]: > 100 µM | TGI [4]: > 100 µM | TGI [5]: > 100 µM | TGI [6]: > 100 µM | TGI [8]: > 100 µM | TGI [10]: > 100 µM | TGI [12]: > 100 µM | TGI [13]: > 100 µM | TGI [56]: > 100 µM | TGI [14]: > 100 µM | TGI [15]: > 100 µM | TGI [16]: > 100 µM | TGI [17]: > 100 µM | TGI [18]: > 100 µM | TGI [20]: > 100 µM | TGI [21]: 26.2 µM | TGI [23]: > 100 µM | TGI [25]: > 100 µM | TGI [26]: > 100 µM | TGI [27]: > 100 µM | TGI [28]: > 100 µM | TGI [29]: > 100 µM | TGI [31]: > 100 µM | TGI [57]: > 100 µM | TGI [32]: > 100 µM | TGI [58]: > 100 µM | TGI [33]: > 100 µM | TGI [34]: > 100 µM | TGI [35]: > 100 µM | TGI [36]: > 100 µM | TGI [37]: > 100 µM | TGI [40]: > 100 µM | TGI [42]: > 100 µM | TGI [43]: > 100 µM | TGI [44]: > 100 µM | TGI [45]: > 100 µM | TGI [46]: > 100 µM | TGI [47]: > 100 µM | TGI [48]: > 100 µM | TGI [49]: > 100 µM | TGI [59]: > 100 µM | TGI [50]: > 100 µM | TGI [51]: > 100 µM | TGI [52]: > 100 µM | TGI [53]: > 100 µM | TGI [54]: > 100 µM | TGI [55]: > 100 µM

CC(=O)Oc1cc(Cl)c(C)c2c1[C@H]1CC[C@]3(C)[C@@H](OC(C)=O)CC[C@H]3[C@@H]1CC2
TGI [1]: > 100 µM | TGI [2]: > 100 µM | TGI [3]: > 100 µM | TGI [4]: > 100 µM | TGI [5]: > 100 µM | TGI [6]: > 100 µM | TGI [7]: > 100 µM | TGI [8]: > 100 µM | TGI [9]: > 100 µM | TGI [10]: > 100 µM | TGI [11]: > 100 µM | TGI [12]: > 100 µM | TGI [13]: > 100 µM | TGI [56]: > 100 µM | TGI [14]: > 100 µM | TGI [15]: > 100 µM | TGI [16]: > 100 µM | TGI [17]: > 100 µM | TGI [18]: > 100 µM | TGI [19]: > 100 µM | TGI [21]: > 100 µM | TGI [22]: > 100 µM | TGI [23]: > 100 µM | TGI [24]: > 100 µM | TGI [25]: > 100 µM | TGI [27]: > 100 µM | TGI [28]: > 100 µM | TGI [29]: > 100 µM | TGI [30]: > 100 µM | TGI [31]: > 100 µM | TGI [57]: > 100 µM | TGI [32]: > 100 µM | TGI [33]: > 100 µM | TGI [34]: > 100 µM | TGI [35]: > 100 µM | TGI [36]: > 100 µM | TGI [37]: > 100 µM | TGI [38]: > 100 µM | TGI [40]: > 100 µM | TGI [42]: > 100 µM | TGI [43]: > 100 µM | TGI [44]: > 100 µM | TGI [45]: > 100 µM | TGI [46]: > 100 µM | TGI [48]: > 100 µM | TGI [49]: > 100 µM | TGI [59]: > 100 µM | TGI [50]: > 100 µM | TGI [51]: > 100 µM | TGI [52]: > 100 µM | TGI [54]: > 100 µM | TGI [55]: > 100 µM

COc1ccc(/C=C2\CCC(C)C3C2=NN(c2ccccc2)C3c2ccc(OC)c(OC)c2)cc1OC (stereo unspecified)
TGI [1]: > 100 µM | TGI [2]: 8.23 µM | TGI [3]: 16.9 µM | TGI [4]: 5.5 µM | TGI [5]: > 100 µM | TGI [6]: 29.2 µM | TGI [7]: 8.63 µM | TGI [8]: 12.3 µM | TGI [9]: 31.6 µM | TGI [10]: 12.2 µM | TGI [11]: > 100 µM | TGI [12]: 14.5 µM | TGI [13]: 21.5 µM | TGI [15]: 12.5 µM | TGI [16]: 21.8 µM | TGI [17]: 24 µM | TGI [18]: 12.9 µM | TGI [20]: 51.6 µM | TGI [21]: 6.37 µM | TGI [23]: 25.3 µM | TGI [25]: 22.1 µM | TGI [26]: 7.87 µM | TGI [27]: 30.4 µM | TGI [28]: 18.3 µM | TGI [29]: 14.6 µM | TGI [30]: > 100 µM | TGI [31]: 4.3 µM | TGI [57]: 36.2 µM | TGI [32]: 6.93 µM | TGI [33]: 7.07 µM | TGI [34]: 9.92 µM | TGI [35]: 9.74 µM | TGI [36]: > 100 µM | TGI [37]: 12.7 µM | TGI [38]: 16.7 µM | TGI [39]: 20.2 µM | TGI [40]: 10.2 µM | TGI [42]: 18.5 µM | TGI [43]: 17.6 µM | TGI [44]: 43.3 µM | TGI [45]: 18.3 µM | TGI [46]: 7.55 µM | TGI [47]: 17.2 µM | TGI [48]: 6.46 µM | TGI [49]: 11 µM | TGI [59]: 7.49 µM | TGI [50]: 6.9 µM | TGI [51]: 9.68 µM | TGI [53]: 15.6 µM | TGI [54]: 16.3 µM | TGI [55]: 9.08 µM
